Reference: PubChem BioAssay (NCI)
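How tested: cells in 96-well plates exposed to compound for 48 hours at five concentrations. GI50: concentration for 50% inhibition of growth. TGI is the concentration that stops growth completely.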

What was measured:
Assay in all cases: NCI anticancer screen, dose series, 48 h
DU-145 prostate = system: DU-145 prostate
HS 578T breast = system: HS 578T breast
MCF7 breast = system: MCF7 breast
MDA-MB-435 = system: MDA-MB-435
T-47D breast = system: T-47D breast
DMS 273 small cell lung = system: DMS 273 small cell lung
MDA-N = system: MDA-N

CN1/C(=C\C=C\C2=[N+](C)c3ccccc3C2(C)C)C(C)(C)c2ccccc21
GI50 (DU-145 prostate): 0.105 µM
TGI (DU-145 prostate): 12.1 µM
GI50 (HS 578T breast): 0.216 µM
TGI (HS 578T breast): 4.45 µM
GI50 (MCF7 breast): 0.127 µM
TGI (MCF7 breast): 1.18 µM
GI50 (MDA-MB-435): 0.0739 µM
TGI (MDA-MB-435): 0.936 µM
GI50 (T-47D breast): 0.0179 µM
TGI (T-47D breast): 1.27 µM

COc1ccc2c(c1)/C(=C/c1cc(OC)c(OC)c(OC)c1)C(=O)N2
GI50 (DU-145 prostate): 0.655 µM
TGI (DU-145 prostate): > 100 µM
GI50 (HS 578T breast): 0.362 µM
TGI (HS 578T breast): 12.8 µM
GI50 (MCF7 breast): 0.35 µM
TGI (MCF7 breast): > 100 µM
GI50 (MDA-MB-435): 0.0318 µM
TGI (MDA-MB-435): 0.253 µM
GI50 (T-47D breast): 0.385 µM

O=S(=O)(CCCl)c1ccc(Cl)cc1
GI50 (DU-145 prostate): 3.33 µM
TGI (DU-145 prostate): 12.3 µM
GI50 (HS 578T breast): 3 µM
TGI (HS 578T breast): 19.2 µM
GI50 (MCF7 breast): 2.19 µM
TGI (MCF7 breast): 10.3 µM
GI50 (MDA-MB-435): 2.7 µM
TGI (MDA-MB-435): 12.6 µM
GI50 (T-47D breast): 3.69 µM
TGI (T-47D breast): 19.9 µM

Oc1ccccc1-c1nn(CNc2ccccc2Cl)c(=S)o1
GI50 (HS 578T breast): > 100 µM
TGI (HS 578T breast): > 100 µM
GI50 (MCF7 breast): 40 µM
TGI (MCF7 breast): > 100 µM
GI50 (MDA-MB-435): > 100 µM
TGI (MDA-MB-435): > 100 µM
GI50 (T-47D breast): 13.5 µM
TGI (T-47D breast): 74.9 µM

CSC(=NCCc1c[nH]c2ccccc12)NC#N
TGI (DMS 273 small cell lung): > 100 µM

CC(C)(C)OC(=O)NCCCCCCCn1c2c(c3ccccc3c1=O)C(=O)c1ccccc1-2
GI50 (DU-145 prostate): 31.8 µM
TGI (DU-145 prostate): > 100 µM
GI50 (HS 578T breast): 17.4 µM
TGI (HS 578T breast): 49.5 µM
GI50 (MCF7 breast): 55.4 µM
TGI (MCF7 breast): > 100 µM
GI50 (MDA-MB-435): 82 µM
TGI (MDA-MB-435): > 100 µM
GI50 (T-47D breast): 16.4 µM
TGI (T-47D breast): 78.1 µM

O=C(N[C@@H](C[Se][Se]C[C@H](NC(=O)c1ccc(Br)cc1F)C(=O)O)C(=O)O)c1ccc(Br)cc1F
GI50 (DU-145 prostate): > 100 µM
TGI (DU-145 prostate): > 100 µM
GI50 (HS 578T breast): > 100 µM
TGI (HS 578T breast): > 100 µM
GI50 (MCF7 breast): 60.8 µM
TGI (MCF7 breast): > 100 µM
GI50 (MDA-MB-435): > 100 µM
TGI (MDA-MB-435): > 100 µM
GI50 (T-47D breast): > 100 µM
TGI (T-47D breast): > 100 µM

Nc1ccc(/C=C/C(=O)NCc2cc3cc(-c4ccc(C(=O)N5CCC(F)(F)CC5)cc4)cc(-c4ccc(F)cc4)c3o2)cn1
GI50 (DU-145 prostate): 4.15 µM
TGI (DU-145 prostate): > 100 µM
GI50 (HS 578T breast): > 100 µM
TGI (HS 578T breast): > 100 µM
GI50 (MCF7 breast): 14.4 µM
TGI (MCF7 breast): > 100 µM
GI50 (MDA-MB-435): 0.752 µM
TGI (MDA-MB-435): > 100 µM
GI50 (T-47D breast): 0.784 µM
TGI (T-47D breast): > 100 µM

O=S(=O)(NCCCNc1nccc(-c2c(-c3ccc(F)cc3)nc3sccn23)n1)c1ccc2ccccc2c1
GI50 (DU-145 prostate): 5.53 µM
TGI (DU-145 prostate): > 100 µM
GI50 (HS 578T breast): 9.13 µM
TGI (HS 578T breast): > 100 µM
GI50 (MCF7 breast): 3.71 µM
TGI (MCF7 breast): > 100 µM
GI50 (MDA-MB-435): 3.67 µM
TGI (MDA-MB-435): > 100 µM
GI50 (T-47D breast): 2.85 µM
TGI (T-47D breast): > 100 µM

CNC(=O)c1nn(C)c2c1C(C)(C)Cc1cnc(Nc3ccc(N4CCN(C)CC4)cc3)nc1-2
GI50 (DU-145 prostate): 0.995 µM
TGI (DU-145 prostate): > 10 µM
GI50 (HS 578T breast): 0.369 µM
TGI (HS 578T breast): > 2.37 µM
GI50 (MCF7 breast): 0.238 µM
TGI (MCF7 breast): > 10 µM
GI50 (MDA-MB-435): 0.693 µM
TGI (MDA-MB-435): > 10 µM
GI50 (T-47D breast): 0.261 µM
TGI (T-47D breast): > 5.55 µM

C=C1C(O)CC[C@]2(C)C1C1OC(C)(C)O[C@]13CC(=O)C(C)=C([C@H]1OC(C)(C)OC12)C3(C)C (some centres undefined)
TGI (DU-145 prostate): > 100 µM
TGI (MCF7 breast): > 100 µM
TGI (MDA-MB-435): > 100 µM
TGI (T-47D breast): > 100 µM

O=c1cc(/C=C/c2ccccc2)[nH]c2cc3c(cc12)OCO3
TGI (DU-145 prostate): > 100 µM
TGI (HS 578T breast): 8.75 µM
TGI (MCF7 breast): 21.5 µM
TGI (MDA-MB-435): 4.29 µM
TGI (MDA-N): 6.23 µM
TGI (T-47D breast): 17.3 µM

c1ccc2[nH]c(-c3ccc(Nc4nc(N5CCCCC5)nc(N5CCOCC5)n4)cc3)nc2c1
GI50 (DU-145 prostate): 4.28 µM
TGI (DU-145 prostate): > 100 µM
GI50 (HS 578T breast): 2.56 µM
TGI (HS 578T breast): 8.61 µM
GI50 (MCF7 breast): 2.4 µM
TGI (MCF7 breast): 7.9 µM
GI50 (MDA-MB-435): 2.06 µM
TGI (MDA-MB-435): 4.59 µM
GI50 (T-47D breast): 1.96 µM
TGI (T-47D breast): 4.58 µM

O=C1OCC2=C1C(c1ccccc1)c1cc3c(cc1N2CCO)OCO3 (centres undefined)
GI50 (DU-145 prostate): 10.6 µM
TGI (DU-145 prostate): > 50 µM
GI50 (HS 578T breast): 2.72 µM
TGI (HS 578T breast): 33.7 µM
GI50 (MCF7 breast): 1.76 µM
TGI (MCF7 breast): > 50 µM
GI50 (MDA-MB-435): 0.563 µM
TGI (MDA-MB-435): 3.25 µM
GI50 (T-47D breast): 3.12 µM
TGI (T-47D breast): > 50 µM

Cc1ccc(NC(=O)c2cc(S(=O)(=O)N3C(=O)NC(=O)NS3(=O)=O)c(S)cc2Cl)cc1
GI50 (DU-145 prostate): 23.2 µM
TGI (DU-145 prostate): 64 µM
GI50 (HS 578T breast): 29.4 µM
TGI (HS 578T breast): 95.8 µM
GI50 (MCF7 breast): 28 µM
TGI (MCF7 breast): > 100 µM
GI50 (MDA-MB-435): 17.1 µM
TGI (MDA-MB-435): 35.7 µM
GI50 (T-47D breast): 21.4 µM
TGI (T-47D breast): 81.3 µM

CSc1nnc(COc2ccc(Cl)cc2)o1
TGI (DMS 273 small cell lung): > 100 µM

O=C(O)[C@@H](Cc1ccc2ccccc2c1)NC(=O)n1c2ccccc2c2ccccc21
GI50 (DU-145 prostate): 3.4 µM
TGI (DU-145 prostate): > 100 µM
GI50 (HS 578T breast): 2.24 µM
TGI (HS 578T breast): 59.6 µM
GI50 (MCF7 breast): 2.42 µM
TGI (MCF7 breast): > 100 µM
GI50 (MDA-MB-435): 1.09 µM
TGI (MDA-MB-435): 3.39 µM
GI50 (T-47D breast): 11.6 µM
TGI (T-47D breast): > 100 µM

O=C(Nc1ccc(Cl)c(Cl)c1)NS(=O)(=O)c1cnccc1Oc1ccc(F)cc1
GI50 (DU-145 prostate): 4.19 µM
TGI (DU-145 prostate): 28.8 µM
GI50 (HS 578T breast): 3.25 µM
TGI (HS 578T breast): > 100 µM
GI50 (MCF7 breast): 2.37 µM
TGI (MCF7 breast): 7.8 µM
GI50 (MDA-MB-435): 2.98 µM
TGI (MDA-MB-435): 12.2 µM
GI50 (T-47D breast): 2.8 µM
TGI (T-47D breast): 8.54 µM

CC(=O)c1ccc(O)c(CN(C2CCCCC2)C2CCCCC2)c1O
TGI (DU-145 prostate): > 100 µM
TGI (HS 578T breast): > 100 µM
TGI (MCF7 breast): > 100 µM
TGI (MDA-MB-435): > 100 µM
TGI (MDA-N): > 100 µM
TGI (T-47D breast): > 100 µM

c1ccc(N2N=C(c3ccco3)CC2c2ccco2)cc1 (centres undefined)
TGI (DMS 273 small cell lung): > 100 µM

CCCCCCCCCCCCCCCC[N+]1(C)CCOCC1
GI50 (DU-145 prostate): 2.41 µM
TGI (DU-145 prostate): 6.79 µM
GI50 (HS 578T breast): 2.23 µM
TGI (HS 578T breast): 8.44 µM
GI50 (MCF7 breast): 2.72 µM
TGI (MCF7 breast): 13.2 µM
GI50 (T-47D breast): 4.68 µM
TGI (T-47D breast): 25.2 µM

O=c1oc2ccc(I)cc2c(=O)n1-c1ccc(Cl)cc1F
GI50 (DU-145 prostate): 2.28 µM
TGI (DU-145 prostate): 21.7 µM
GI50 (HS 578T breast): 0.688 µM
TGI (HS 578T breast): 8.66 µM
GI50 (MCF7 breast): 2.36 µM
TGI (MCF7 breast): 36.5 µM
GI50 (MDA-MB-435): 1.9 µM
TGI (MDA-MB-435): 10.3 µM
GI50 (T-47D breast): 1.26 µM
TGI (T-47D breast): 6.44 µM

O=C(N/N=C/c1ccccc1O)c1ccccc1
GI50 (DU-145 prostate): 3.27 µM
TGI (DU-145 prostate): > 100 µM
GI50 (HS 578T breast): 27.1 µM
TGI (HS 578T breast): > 100 µM
GI50 (MCF7 breast): 2.86 µM
TGI (MCF7 breast): > 100 µM
GI50 (MDA-MB-435): 4.68 µM
TGI (MDA-MB-435): > 100 µM
GI50 (T-47D breast): 0.457 µM
TGI (T-47D breast): > 100 µM
